Series [1] has as its system Staphylococcus aureus. Put plainly: Bactericidal activity against methicillin-resistant Staphylococcus aureus CBD-635 assessed as bacterial killing. The class given is functional.
A short description of series [2]: Cytotoxicity against human A549 cells assessed as cell viability recovery at 36.7 to 459 uM by MTT assay relative to untreated control. Particulars: read-out: Activity. The class given is cell-based.
Series [3] is described as follows: Cytotoxicity against human A549 cells assessed as cell viability recovery at up to 9.2 uM by MTT assay relative to untreated control. Format: cell-based. The note with it: read-out: Activity.
Series [4] deals with Staphylococcus aureus. Put plainly: Antimicrobial activity against methicillin-resistant Staphylococcus aureus CBD-635 assessed as zone of inhibition at 5 mg/ml after 24 hrs by disk diffusion assay. Format: functional. Particulars: CBD-635, 24 h, read-out: IZ.
Series [5] relates to Staphylococcus aureus. Put plainly: Antimicrobial activity against methicillin-resistant Staphylococcus aureus CBD-635 assessed as complete inhibition of bacterial growth after overnight incubation. The class given is functional.
Series [6] is described as follows: Cytotoxicity against human A549 cells assessed as cell viability recovery up to 459 uM by MTT assay relative to untreated control. The class given is cell-based. Particulars: read-out: Activity.
Series [7] relates to Staphylococcus aureus. As to the kind of experiment: Antimicrobial activity against methicillin-resistant Staphylococcus aureus CBD-635 assessed as complete inhibition of bacterial growth at 5 times MIC after overnight incubation in presence of tetrahydrofolic acid. The class given is functional, organism-based.
The test system of a further series is Legionella pneumophila. As to the kind of experiment: Antimicrobial activity against Legionella pneumophila. Format: functional.
A further series has as its system Enterococcus. As to the kind of experiment: Antibacterial activity against Enterococcus. Format: functional.
For the next series, the system named is Moraxella catarrhalis. Put plainly: Antimicrobial activity against Moraxella catarrhalis. Format: functional.
In a further series the test system is Streptococcus. Put plainly: Antibacterial activity against Streptococcus. The class given is functional.
For a further series, the system named is Neisseria sp. Put plainly: Antimicrobial activity against Neisseria species. Format: functional.
Another series concerns Haemophilus influenzae. Put plainly: Antimicrobial activity against Haemophilus influenzae. Format: functional.
The next series concerns Staphylococcus. Put plainly: Antibacterial activity against Staphylococcus. Format: functional.
The test system of series [8] is Staphylococcus aureus. Put plainly: Antibacterial activity against methicillin-resistant Staphylococcus aureus SA-1417 infected in mouse assessed as protection of mouse. Format: functional. The note with it: read-out: PD50.
The next series has as its system Listeria monocytogenes. Put plainly: Antimicrobial activity against Listeria monocytogenes. The class given is functional.
The test system of series [9] is Staphylococcus aureus. As to the kind of experiment: Antimicrobial activity against N2,N4-dibenzylquinazoline-2,4-diamine-induced methicillin-resistant Staphylococcus aureus CBD-635 mutant assessed as complete inhibition of bacterial growth after overnight incubation. Format: functional.
Series [10] has as its system Staphylococcus aureus. Put plainly: Antimicrobial activity against Staphylococcus aureus infected in mouse assessed as increase in mouse survival at 5 times MIC via tail vein relative to untreated control. The class given is functional.
For series [11] the following is noted: pampa, pH 4.
A short description of series [12]: Cytotoxicity against human A549 cells assessed as cell viability recovery at 1.5 uM by MTT assay relative to untreated control. Format: cell-based. Particulars: read-out: Activity.
Series [13] can be described thus: Cytotoxicity against human A549 cells assessed as cell viability recovery up to 367 uM by MTT assay relative to untreated control. Format: cell-based. The note with it: read-out: Activity.
In series [14] the test system is Staphylococcus aureus. As to the kind of experiment: Antimicrobial activity against N2,N4-dibenzylquinazoline-2,4-diamine-induced methicillin-resistant Staphylococcus aureus CBD-635 mutant M6 assessed as complete inhibition of bacterial growth after overnight incubation. The class given is functional.
Series [15] deals with Staphylococcus aureus. As to the kind of experiment: Antimicrobial activity against N2,N4-dibenzylquinazoline-2,4-diamine-induced methicillin-resistant Staphylococcus aureus CBD-635 mutant M1 assessed as complete inhibition of bacterial growth after overnight incubation. Format: functional.
The test system of series [16] is Staphylococcus aureus. Put plainly: Antimicrobial activity against N2,N4-dibenzylquinazoline-2,4-diamine-induced methicillin-resistant Staphylococcus aureus CBD-635 mutant M4 assessed as complete inhibition of bacterial growth after overnight incubation. The class given is functional.
Series [17] deals with Staphylococcus aureus. Put plainly: Antimicrobial activity against N2,N4-dibenzylquinazoline-2,4-diamine-induced methicillin-resistant Staphylococcus aureus CBD-635 mutant M2 assessed as complete inhibition of bacterial growth after overnight incubation. Format: functional.
The conditions of series [18]: pampa, pH 7.4.
The test system of series [19] is Staphylococcus aureus. As to the kind of experiment: Antimicrobial activity against trimethoprim-resistant Staphylococcus aureus assessed as complete inhibition of bacterial growth after 24 hrs. The class given is functional, organism-based.
In series [20] the test system is Staphylococcus aureus. As to the kind of experiment: Antimicrobial activity against Staphylococcus aureus infected in mouse assessed as increase in mouse survival at 10 times MIC via tail vein relative to untreated control. The class given is functional, organism-based.
The nature of series [21]: Lipophilicity, log D of the compound at pH 3. Format: physicochemical. Particulars: buffer.
Series [22] can be described thus: Aqueous solubility of the compound at pH 2 after 18 hrs incubation by HPLC. The class given is physicochemical.
The subject of series [23] is Staphylococcus aureus. As to the kind of experiment: Antimicrobial activity against N2,N4-dibenzylquinazoline-2,4-diamine-induced methicillin-resistant Staphylococcus aureus CBD-635 mutant M7 assessed as complete inhibition of bacterial growth after overnight incubation. The class given is functional.
For series [24], the system named is Staphylococcus aureus. As to the kind of experiment: Antimicrobial activity against methicillin-resistant Staphylococcus aureus infected in mouse assessed as complete protection to mouse at MIC via tail vein relative to untreated control. Format: functional, organism-based.
Series [25] is described as follows: Lipophilicity, log D of the compound at pH 7.4. The class given is physicochemical. The note with it: buffer.
Series [26] deals with Staphylococcus aureus. Put plainly: Antimicrobial activity against N2,N4-dibenzylquinazoline-2,4-diamine-induced methicillin-resistant Staphylococcus aureus CBD-635 mutant M5 assessed as complete inhibition of bacterial growth after overnight incubation. The class given is functional.
For series [27], the system named is Staphylococcus aureus. Put plainly: Antimicrobial activity against N2,N4-dibenzylquinazoline-2,4-diamine-induced methicillin-resistant Staphylococcus aureus CBD-635 mutant M3 assessed as complete inhibition of bacterial growth after overnight incubation. The class given is functional.
A short description of series [28]: Aqueous solubility of the compound at pH 7.4 after 18 hrs incubation by HPLC. The class given is physicochemical.
Series [29] in a line: Cytotoxicity against human A549 cells assessed as cell viability recovery at 370 uM by MTT assay relative to untreated control. The class given is cell-based. The note with it: read-out: Activity.
Series [30] has as its system Staphylococcus aureus. Put plainly: Antimicrobial activity against quinazoline-resistant Staphylococcus aureus assessed as complete inhibition of bacterial growth after 24 hrs. The class given is functional, organism-based.
Series [31] deals with Staphylococcus aureus. Put plainly: Antimicrobial activity against wild type Staphylococcus aureus in presence of sulfamethoxazole. The class given is functional.
In series [32] the test system is Staphylococcus aureus. As to the kind of experiment: Antimicrobial activity against Staphylococcus aureus infected Galleria mellonella assessed as increase in larvae survival at 5 times MIC. The class given is functional.
Series [33] has as its system Staphylococcus aureus. Put plainly: Antimicrobial activity against wild type Staphylococcus aureus. Format: functional.
Series [34] concerns Staphylococcus aureus. Put plainly: Antimicrobial activity against Staphylococcus aureus infected Galleria mellonella assessed as increase in larvae survival at 10 times MIC. Format: functional.
The nature of series [35]: Cytotoxicity against human A549 cells assessed as cell viability recovery up to 407 uM by MTT assay relative to untreated control. The class given is cell-based. Particulars: read-out: Activity.
Series [36] in a line: Cytotoxicity against human A549 cells assessed as cell viability recovery at 1.6 to 16 uM by MTT assay relative to untreated control. Format: cell-based. Particulars: read-out: Activity.
Series [37] can be described thus: Cytotoxicity against human A549 cells assessed as cell viability recovery at 41 to 410 uM by MTT assay relative to untreated control. Format: cell-based. The note with it: read-out: Activity.

Values after ≈ are worked out from the molar mass of the structure shown. Active and inactive are the calls of the source. Unless noted, no cut-off for these calls is given here. Bounds are passed on as bounds.

Turning to `CCCCNc1nc(NCCCC)c2ccccc2n1`, the MBC50 in the series on Staphylococcus aureus [1] is 0.036 µM (≈ 0.00981 µg/mL). Also, in series [2], the viability at up to 459 µM is 58.8%. Further, the viability in series [3] was 100%; in [6] it was over 50%. Moreover, the zone of inhibition at 5000 µg/mL in the series with Staphylococcus aureus [4] is 12 mm. Also, in the series on Staphylococcus aureus [5], the MIC was 0.37 µM (≈ 0.101 µg/mL). Also, the inhibition result with Staphylococcus aureus [7] is “inactive”.

Take `Cc1c(N2CC[C@@H]([C@H](C)N)C2)c(F)cc2c(=O)[nH]c(=O)n(C3CC3)c12`: the MIC90 in the series on Legionella pneumophila was 0.5 µg/mL (≈ 1.44 µM); in the series on Moraxella catarrhalis, 0.5 µg/mL (≈ 1.44 µM); with Streptococcus, 0.06 µg/mL (≈ 0.173 µM); against Neisseria sp., 0.5 µg/mL (≈ 1.44 µM); with Haemophilus influenzae, 0.5 µg/mL (≈ 1.44 µM); against Staphylococcus it was 0.5 µg/mL (≈ 1.44 µM). Besides, the MIC90 with Listeria monocytogenes worked out at 0.5 µg/mL (≈ 1.44 µM). Further, the lowest concentration to inhibit growth with Enterococcus (MIC) was 2 µg/mL (≈ 5.77 µM). Besides, in the series on Staphylococcus aureus [8], the ED50 amounted to 2.5 mg/kg.

`c1ccc(CNc2nc(NCc3ccccc3)c3ccccc3n2)cc1`: the minimum inhibitory concentration (MIC) in the series on Staphylococcus aureus [9], in the series on Staphylococcus aureus [14], with Staphylococcus aureus [15], in the series with Staphylococcus aureus [16], with Staphylococcus aureus [17] and with Staphylococcus aureus [23] was over 590 µM each time. Further, the MIC with Staphylococcus aureus [5] is 2.9 µM (≈ 0.987 µg/mL); in the series with Staphylococcus aureus [26], over 590 µM; with Staphylococcus aureus [27] it was over 590 µM. The Survival stood at 69% with Staphylococcus aureus [10] and 50% in the series on Staphylococcus aureus [32]. In addition, the permeability was 312 ×10⁻⁶ cm/s in series [11] and 383 ×10⁻⁶ cm/s in [18]. Besides, the viability at 1.5 µM in series [12] amounted to 93.2%. In addition, the viability in series [13] was over 60%. Moreover, in the series with Staphylococcus aureus [1], the MBC50 entry was “inactive”. Also, the inhibition entry in the series on Staphylococcus aureus [19] and in the series on Staphylococcus aureus [30] was “Active” throughout. For the same compound, the outcome with Staphylococcus aureus [20] and in the series on Staphylococcus aureus [24] was Active. Moreover, the zone of inhibition at 5000 µg/mL with Staphylococcus aureus [4] was determined as 13 mm. Moreover, the logD came to 2.82 in series [21] and 3.82 in series [25]. In addition, the solubility at 18 h in series [22] was at least 30 µM; in [28], at most 10 µM. In addition, the inhibition result in the series on Staphylococcus aureus [7] was “inactive”. The viability at 370 µM in [29] stood at 83.6%. For the same compound, the “fractional inhibitory concentration index (FICI)” value in the series on Staphylococcus aureus [31] stood at 0.12.

Compound `Cc1cc(NS(=O)(=O)c2ccc(N)cc2)no1` [SULFAMETHOXAZOLE] had an MIC against Staphylococcus aureus [33] of 2400 µM (≈ 608 µg/mL).

For `CCCCNc1nc(NCc2ccccc2)c2ccccc2n1`, the results for the Survival in the series with Staphylococcus aureus [10], in the series with Staphylococcus aureus [34] and with Staphylococcus aureus [32] were 69%, 70% and 40%, respectively. The results for the permeability in [11] and in series [18] were 161 ×10⁻⁶ cm/s and 1250 ×10⁻⁶ cm/s, respectively. For the same compound, the MBC50 with Staphylococcus aureus [1] was 0.98 µM (≈ 0.3 µg/mL). Besides, the inhibition result in the series with Staphylococcus aureus [19] and in the series on Staphylococcus aureus [30] was “Active” each time. In addition, in the series with Staphylococcus aureus [4], the zone of inhibition at 5000 µg/mL was determined as 12 mm. The results for the logD in series [21] and in series [25] were 2.84 and 3.8, respectively. The solubility at 18 h in series [22] was at least 30 µM; in series [28], at most 20 µM. Besides, the MIC in the series with Staphylococcus aureus [5] is 3.3 µM (≈ 1.01 µg/mL). Besides, the viability in [35] was over 60%. Also, in [36], the viability at up to 16 µM is over 100%. The inhibition result in the series with Staphylococcus aureus [7] was “inactive”. Moreover, in the series on Staphylococcus aureus [31], the “fractional inhibitory concentration index (FICI)” value turned out to be 0.11. For the same compound, in [37], the viability at up to 410 µM is over 95%.

Values taken from ChEMBL document CHEMBL3259619, “Antibacterial activity of a series of N2,N4-disubstituted quinazoline-2,4-diamines” (J Med Chem, 2014).
